Like-named read-outs stand apart in the source and are kept apart here.

The subject of one series is cerebellum. In kind it is in vivo. To be noted: sheep cerebellum. The procedure: A full clinical examination was performed prior to euthanasia. At euthanasia, 100 I.U. heparin (Provet Riverina Pty Ltd) was injected into the jugular vein, followed shortly by Lethabarb (20 mL/40 kg LW). Immediately after euthanasia, the ventral articulation of C1 was exposed and cerebrospinal fluid (CSF) collected using a 23 g needle. The head was then removed and subjected to perfusion fixation. Briefly, the carotid arteries were exposed and a small catheter inserted and ligated to secure the perfusion lines. Two liters of 0.1% phosphate buffered saline (PBS) containing 3000 I.U of heparin/L was then slowly perfused via the ligated vessels at a pressure of 90 mm Hg using a Microgon peristaltic Pump (Microgon, Laguna Hills, Calif.). Once complete this was replaced with 4% paraformaldehyde (Sigma-Alrich) in 0.1% PBS and a further two liters allowed to perfuse slowly through the tissues of the head. Once complete, catheters were removed and the whole head placed at 4° C. overnight to complete fixation. Twenty-four hours post perfusion fixation the brain was removed from the skull and placed in 10% formal saline for storage until dissection for processing to wax sections.
Concurrent to fixation perfusion of the head, a routine ovine necropsy was performed and all general tissues taken for routine histopathology. These were heart, lung, oesophagus and trachea, liver, spleen, gut (rumen, abomasum, ileocaecal junction, ileum, caecum and colon), skeletal muscle (gluteal, tricep and diaphram), kidney, pancreas, thymus, ileal and cranial lymph nodes as well as tissues from any gross abnormalities observed at time post necropsy. Other samples: subcutaneous fat, renal fat, gluteal muscle, kidney, faeces and rumen contents were collected and stored at −80° C. for future toxicological analysis. Samples for routine histopathology were fixed in 10% formal saline for a minimum of 48 hours before processing to wax using an automated wax embedder (Shandon Excelsior ES Tissue Processor, Thermo Fisher Scientific).
For histopathology, sections of brain and spinal cord included the following regions: mid cerebellar peduncle; mid and lateral sections of cerebellum; obex, occipital cortex; rostral colliculi; basal ganglia; frontal cortex; temporal cortex; thalamus; hippocampus; internal capsule; cervical, thoracic and lumbar spinal cord and pituitary. Other tissues examined for routine histopathology were kidney; lung; ileum; heart; liver including, gall bladder and bile duct; diaphragm; rumen; and colon. All sections were cut at 5 μm and stained with Haematoxylin and Eosin (H&E) using an automated staining system (Shandon Varistain Gemini ES Slide Stainer, Thermo Fisher Scientific).

The subject of series [1] is lolitrem B toxicosis (Rye Grass Staggers). Nature of the series: Electromyography, tremor intensity. In kind it is in vivo, sheep. To be noted: lolitrem B intoxicated, EMG. The method, then:
EMGs were recorded on entry to the trial, entry to the end of trial (Day 1) and date of post mortem (Day 3) using Powerlab™ (ADInstruments, Castle Hill, Australia) and data recorded using LabChart™ software (ADInstruments, Australia). In preparation, the fleece was shorn from an area over the triceps muscle and along brachiocephalicus muscle of the neck. EMG electrodes were attached to the skin using SuperGlue™. Muscle activity was recorded for a minimum of three minutes with the animal standing at rest with a band pass filter set at 100 Hz. Three minute EMG recordings were taken using Ag—AgCl surface electrodes over the triceps muscle on to entry to the trial, on first day of falling (Day 1) and 48 hours post treatment (Day 3). Data analysis was achieved by application of a Fast-Fourier transformation for statistical comparison. Area under the curve was then calculated at frequencies between 5 and 30 Hz to estimate tremor intensity.

For series [2] the test system is unchanged. Nature of the series: Gait analysis and time to falling. To be noted: for time to falling: by context untreated, toxin only. It is filed as in vivo, sheep. The procedure: Gait analysis was performed on entry to the trial and at designated time points throughout the trial as described above. To achieve this, animals were moved from their individual pens to an external yard in their cohort groups (five animals, one from each treatment). Animals were then encouraged to move at a run, initially in a group and then individually, for a minimum of three minutes per animal whilst their movement was captured on video and gait observations recorded.
Once all animals had been analysed the whole cohort was returned to their individual pens. Gait abnormalities such as stumbling, falling or disorientation were noted, including observation of Type 1 or Type 2 gait changes as described in Combs et, al., (2014). Type I movement disorder is defined as an impaired alternating movement (dysdiadochokinesia), bunny-hopping gait and failure to maintain an appropriate direction. Type 2 movement disorder is defined by increasing rigidity of limbs on forced movement resulting finally in tonic fore and hind limb extension with the animal collapsing into sternal or lateral recumbency (Combs, Rendell et at 2014). Scores between those denoted above were considered as a gradation between the stated clinical observations. Analysis of gait was performed using the following scale in Table 2 and a composite score noted for each animal for each day during the end of trial protocol. A total score out of 30 was determined for each animal. The higher the score the greater the locomotory disturbance. Time to falling was determined post trial by analysis of video material,
Animals that met the entry criteria (severe Type 2 gait abnormality and falling) were submitted to the end-of-trial protocol. […] Animals were subjected to the following tests on days 1 and 3: gait analysis, full neurological examination, venous blood and urine sampling and EMG. Only gait analysis was performed on day 2.

[3] abbreviates: Group 3: toxin plus acute treatment.
The mark [4] stands for this setting: Group 4: toxin plus prophylactic treatment.
[5] abbreviates: Group 5: prophylactic treatment only.

As for `CC(C)=C[C@H]1O[C@H]2[C@H]3O[C@@]34[C@H](CC[C@@]3(C)[C@@]4(O)CC[C@H]4Cc5c([nH]c6ccc7c(c56)C[C@@H]5[C@@H](C7=O)C(C)(C)OC5(C)C)[C@@]43C)O[C@@H]2C(C)(C)O1` [lolitrem B], in the series on cerebellum (Group 2: toxin only), the “Incidence of Purkinje neuron vacuolation” value is on record as 5/9; the “Incidence of pyknotic cell bodies in granular layer” value (“Incidence of pyknotic cell bodies” below) is 9/9; the “Incidence of spheroids, granular layer” value was 7/9; the “Incidence of spheroids, molecular layer” value is 1/9. Besides, the “Day 1: Day 3 tremor intensity ratio, median” value in series [1] (Group 2 sheep, no treatment) is reported as 2.03. Also, in series [2] (Group 2 sheep, untreated intoxicated, p=0.05), the “composite gait scores over the same time course” value is reported as “increase”. Also, the “animals falling, no improvement over the same time period” value in series [2] (positive control sheep, toxic feed, not treated with potassium bromide) is given as 7/7. Further, in series [2] (printed as Group 3 Day 2), the time to falling amounted to 59.0 ± 23.50 s. The time to falling in series [2] (printed as Group 3 Day 3) was determined as 51.52 ± 20.23 s. Besides, in series [2] (sheep, Groups 2 and 3, toxic feed), the “animals progressing to falling over the same timeframe (22 days)” value is on record as 5.

With `[Br-].[K+]` [potassium bromide], in the series on cerebellum (setting [3]), the “Incidence of Purkinje neuron vacuolation” value is given as 2/9; the “Incidence of pyknotic cell bodies” value is 5/9; the “Incidence of spheroids, granular layer” value was 7/9; the “Incidence of spheroids, molecular layer” value is recorded as 0/9. Moreover, in the series on cerebellum (setting [4]), the “Incidence of Purkinje neuron vacuolation” value is 1/9; the “Incidence of pyknotic cell bodies” value was 9/9; the “Incidence of spheroids, granular layer” value is 6/9; the “Incidence of spheroids, molecular layer” value was 3/9. In the series on cerebellum (setting [5]), the “Incidence of Purkinje neuron vacuolation” value was 0/9; the “Incidence of pyknotic cell bodies” value is recorded as 2/9; the “Incidence of spheroids, granular layer” value is 1/9; the “Incidence of spheroids, molecular layer” value is given as 3/9. Moreover, the “Day 1: Day 3 tremor intensity ratio” value in series [1] (Group 3 sheep, acute KBr treatment) is 0.81. The “composite gait score, Day 1 (pre-treatment) to Day 2 (24 hours post treatment)” value in series [2] (Group 3 sheep, lolitrem B toxin, oral 300 mg/kg LW potassium bromide, p=0.001) is reported as “significant reduction”. Further, the “time to falling in intoxicated animals” value in series [2] (intoxicated sheep, oral 300 mg/kg BW potassium bromide on day of falling) is reported as “significantly improve”. In addition, in series [2] (intoxicated sheep, oral 300 mg/kg BW potassium bromide on day of falling, 24 and 48 hours after treatment), the “animals failing to fall when driven to movement for a continuous period of 5 minutes” value was 8/9. The “animals progressing to falling in the designated 22 days of treatment” value in series [2] (sheep, prophylactic potassium bromide plus toxic feed (Group 4)) is recorded as “one”.

The values above are taken from patent US9913858B2, “Prevention and treatment of toxicosis” (priority 2013, dated 2018).
